From ChEMBL document CHEMBL5223082, “Alkyl-Aryl-Vancomycins: Multimodal Glycopeptides with Weak Dependence on the Bacterial Metabolic State” (J Med Chem, 2021)
Active and inactive are the calls of the source. The calls are words filed in the database; no cut-off is given here.

Experiments:
Staphylococcus aureus [1] = test: Antibacterial activity against Methicillin-resistant Staphylococcus aureus ATCC 33591 assessed as inhibition of bacterial growth incubated for 18 to 24 hrs by CLSI microbroth dilution method; format: functional; details: time 18-24 hrs
Staphylococcus aureus [2] = test: Antibacterial activity against Vancomycin-resistant Staphylococcus aureus 4 assessed as inhibition of bacterial growth incubated for 18 to 24 hrs by CLSI microbroth dilution method; format: functional; details: time 18-24 hrs
Staphylococcus aureus [3] = test: Antibacterial activity against Vancomycin-resistant Staphylococcus aureus 12 assessed as inhibition of bacterial growth incubated for 18 to 24 hrs by CLSI microbroth dilution method; format: functional; details: time 18-24 hrs
Enterococcus [4] = test: Antibacterial activity against Vancomycin-resistant Enterococci ATCC 51575 assessed as inhibition of bacterial growth incubated for 18 to 24 hrs by CLSI microbroth dilution method; format: functional; details: time 18-24 hrs
Staphylococcus aureus [5] = test: Potency index, ratio of Vancomycin MIC to test compound MIC for antibacterial activity against Vancomycin-resistant Staphylococcus aureus 4; format: functional
Staphylococcus aureus [6] = test: Potency index, ratio of Vancomycin MIC to test compound MIC for antibacterial activity against Vancomycin-resistant Staphylococcus aureus 12; format: functional
Enterococcus [7] = test: Potency index, ratio of Vancomycin MIC to test compound MIC for antibacterial activity against Vancomycin-resistant Enterococci NR30903; format: functional, NR 30903
Enterococcus [8] = test: Potency index, ratio of Vancomycin MIC to test compound MIC for antibacterial activity against Vancomycin-resistant Enterococci ATCC 51575; format: functional
[9] = Induction of hemolysis in human erythrocytes at 250 uM incubated for 1 hr by microtiter plater reader analysis; format: toxicity, cell-based, Erythrocyte; details: read-out: Activity
[10] = Cytotoxicity against human HEK293 cells assessed as cell viability at 0.5 to 30 uM incubated for 24 hrs by AlamarBlue assay; format: toxicity, cell-based; details: dose 0.5-30 µM, read-out: Activity
Staphylococcus aureus [11] = test: Antibacterial activity against Methicillin-resistant Staphylococcus aureus ATCC 33591 assessed as log reduction in bacterial colonies at 10XMIC incubated for 1 hr in broth solution followed by plating on nutrient agar plate; format: functional
Staphylococcus aureus [12] = test: Bactericidal activity against methicillin-resistant Staphylococcus aureus ATCC 33591 assessed as log reduction in bacterial colonies incubated for 4 hrs in broth solution followed by culturing for 24 hrs on agar plate by spot plating method; format: functional; details: time 28 hrs
Staphylococcus aureus [13] = test: Bactericidal activity against methicillin-resistant Staphylococcus aureus ATCC 33591 assessed as log reduction in bacterial colonies at 2XMIC incubated for 6 hrs in broth solution followed by culturing for 24 hrs on agar plate by spot plating method; format: functional; details: time 30 hrs
Staphylococcus aureus [14] = test: Bactericidal activity against methicillin-resistant Staphylococcus aureus ATCC 33591 assessed as eradication of viable bacterial cells at 4XMIC incubated for 6 hrs in broth solution followed by culturing for 24 hrs on agar plate by spot plating method; format: functional; details: time 30 hrs
Enterococcus [15] = test: Bactericidal activity against Vancomycin-resistant Enterococci assessed as log reduction in bacterial colonies at MIC incubated for 24 hrs in broth solution followed by culturing for 24 hrs on agar plate by spot plating method; format: functional; details: time 48 hrs
Enterococcus [16] = test: Bactericidal activity against Vancomycin-resistant Enterococci assessed as log reduction in bacterial colonies at 2XMIC incubated for 24 hrs in broth solution followed by culturing for 24 hrs on agar plate by spot plating method; format: functional; details: time 48 hrs
Staphylococcus aureus [17] = test: Antibacterial activity against Methicillin-resistant Staphylococcus aureus ATCC 33591 assessed as inhibition of bacterial growth preincubated compound with teichoic-acid for 1 hr followed by incubation with bacterial culture for 18 to 24 hrs by CLSI microbroth dilution method; format: functional; details: time 19-25 hrs
Cell membrane [18] = test: Induction of cytoplasmic membrane depolarization in Methicillin-resistant Staphylococcus aureus ATCC 33591 assessed as increase in fluorescence intensity at 10 uM measured for 35 to 40 mins by DiSC3(5) dye based fluorescence analysis; format: subcellular; details: time 35-40 min
Bacillus subtilis [19] = test: Antibacterial activity against Bacillus subtilis 168 assessed as concentration that requires for bacterial growth retardation measured for every 30 mins; format: functional
Bacillus subtilis [20] = test: Inhibition of cell wall biosynthesis in Bacillus subtilis 168 assessed as bubble-like formation on bacterial cell surface at PEC incubated for 15 mins by light microscopic analysis; format: functional, organism-based
[21] = target: T1, Septum site-determining protein MinD (Bacillus subtilis (strain 168)) (UniProt Q01464); test: Delocalization of GFP tagged-MinD in Bacillus subtilis 168 at PEC incubated for 15 mins by fluorescence microscopy
T1 sequence (whole entry): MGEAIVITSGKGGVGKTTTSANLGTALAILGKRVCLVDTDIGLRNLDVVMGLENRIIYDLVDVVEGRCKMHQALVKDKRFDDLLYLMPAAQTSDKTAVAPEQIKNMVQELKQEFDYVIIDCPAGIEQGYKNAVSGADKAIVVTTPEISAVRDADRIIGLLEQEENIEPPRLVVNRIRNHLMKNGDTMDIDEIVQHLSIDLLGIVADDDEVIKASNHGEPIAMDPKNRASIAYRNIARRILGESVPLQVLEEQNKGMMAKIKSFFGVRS

Cell membrane [22] = test: Induction of Cytoplasmic membrane disruption in Bacillus subtilis 168 assessed as proportion of PI-stained cells at PEC incubated for 10 mins by SYTO9/PI staining based fluorescence microscopy; format: subcellular
Staphylococcus aureus [23] = test: Antibacterial activity against stationary phase of Methicillin-resistant Staphylococcus aureus ATCC 33591 assessed as log reduction in bacterial colonies at 4.5 uM incubated for 12 hrs in broth solution followed by incubation on agar plate for 48 hrs by spot plating method; format: functional; details: time 60 hrs
Staphylococcus aureus [24] = test: Antibacterial activity against stationary phase of Methicillin-resistant Staphylococcus aureus ATCC 33591 assessed as log reduction in bacterial colonies at 4.5 uM incubated for 24 hrs in broth solution followed by incubation on agar plate for 48 hrs by spot plating method; format: functional; details: time 72 hrs
Staphylococcus aureus [25] = test: Antibacterial activity against stationary phase of Methicillin-resistant Staphylococcus aureus ATCC 33591 assessed as log reduction in bacterial colonies at 9 uM incubated for 24 hrs in broth solution followed by incubation on agar plate for 48 hrs by spot plating method; format: functional; details: time 72 hrs
Staphylococcus aureus [26] = test: Antibacterial activity against Methicillin-resistant Staphylococcus aureus ATCC 33591 persister cells assessed as log reduction in bacterial colonies at 4.5 uM incubated for 12 hrs in broth solution followed by incubation on agar plate for 48 hrs by spot plating method; format: functional; details: time 60 hrs
Staphylococcus aureus [27] = test: Antibacterial activity against Methicillin-resistant Staphylococcus aureus ATCC 33591 assessed as inhibition of bacterial growth measured after 27 passages; format: functional
Staphylococcus aureus [28] = test: Antibacterial activity against Methicillin-resistant Staphylococcus aureus ATCC 33591 assessed as inhibition of bacterial growth incubated for 18 to 24 hrs in presence of 50% human liver homogenate by CLSI microbroth dilution method; format: functional; details: ATCC 33591, Liver, time 18-24 hrs
[29] = Toxicity in BALB/c mouse assessed as adverse effects at 55.5 mg/kg, ip measured for 4 hrs; format: organism-based; details: in vivo
[30] = Toxicity in BALB/c mouse assessed as adverse effects at 55.5 mg/kg, iv measured for 4 hrs; format: organism-based; details: in vivo
[31] = Hepatotoxicity in mouse assessed as plasma ALT level at 12 mg/kg, ip measured after 48 hrs; format: toxicity, organism-based; details: in vivo
[32] = Renal toxicity in mouse assessed as plasma creatinine level at 12 mg/kg, ip measured after 48 hrs; format: organism-based; details: in vivo

Q: For `CCCCCCCCCCNC(=O)C[N+](C)(C)CCCNC(=O)c1ccc(CN[C@@]2(C)C[C@H](O[C@H]3[C@H](Oc4c5cc6cc4Oc4ccc(cc4Cl)[C@@H](O)[C@@H](NC(=O)[C@@H](CC(C)C)NC)C(=O)N[C@@H](CC(N)=O)C(=O)N[C@H]6C(=O)N[C@H]4C(=O)N[C@H](C(=O)N[C@H](C(=O)O)c6cc(O)cc(O)c6-c6cc4ccc6O)[C@H](O)c4ccc(c(Cl)c4)O5)O[C@H](CO)[C@@H](O)[C@@H]3O)O[C@@H](C)[C@H]2O)cc1`, which MIC (Staphylococcus aureus [1]) is on record?
A: Its MIC is 0.9 µM.

Q: And the MIC (Staphylococcus aureus [2])?
A: Its MIC is 0.45 µM.

Q: And the MIC (Staphylococcus aureus [3])?
A: Its MIC is 0.9 µM.

Q: And the MIC (Enterococcus [4])?
A: Its MIC is 3.6 µM.

Q: What about the Ratio (Staphylococcus aureus [5]) of the same compound?
A: Its Ratio is 1384.

Q: And the Ratio (Staphylococcus aureus [6])?
A: Its Ratio is 1384.

Q: What about the Ratio (Enterococcus [7]) of the same compound?
A: The Ratio was 1384.

Q: And the Ratio (Enterococcus [8])?
A: The Ratio was 1384.

Q: And the hemolysis at 1 h, 250 µM [9]?
A: The hemolysis at 1 h, 250 µM was 1%.

Q: What about the viability at 24 h, up to 30 µM [10] of the same compound?
A: The viability at 24 h, up to 30 µM was 100%.

Q: What about the Activity (Staphylococcus aureus [11]) of the same compound?
A: The Activity was 0.8 log10CFU/ml.

Q: What about the Activity (Staphylococcus aureus [12]) of the same compound?
A: Its Activity is 3 log10CFU/ml.

Q: What about the Activity (Staphylococcus aureus [13]) of the same compound?
A: Its Activity is 4.3 log10CFU/ml.

Q: What about the Activity (Staphylococcus aureus [14]) of the same compound?
A: The Activity was 100%.

Q: And the Activity (Enterococcus [15])?
A: The Activity was 0.7 log10CFU/ml.

Q: What about the Activity (Enterococcus [16]) of the same compound?
A: The Activity was 5 log10CFU/ml.

Q: And the MIC (Staphylococcus aureus [17])?
A: Its MIC is 0.9 µM.

Q: What about the Activity (Cell membrane [18]) of the same compound?
A: The Activity was “Active”.

Q: And the EC (Bacillus subtilis [19])?
A: Its EC is 0.06 µM.

Q: What about the inhibition (Bacillus subtilis [20]) of the same compound?
A: The inhibition was “Active”.

Q: And the Activity [21]?
A: Its Activity is “inactive”.

Q: What about the Activity (Cell membrane [22]) of the same compound?
A: The Activity was 5%.

Q: What about the Activity (Staphylococcus aureus [23]) of the same compound?
A: Its Activity is 1.4 log10CFU/ml.

Q: And the Activity (Staphylococcus aureus [24])?
A: Its Activity is 2 log10CFU/ml.

Q: And the Activity (Staphylococcus aureus [25])?
A: The Activity was 2.4 log10CFU/ml.

Q: What about the Activity (Staphylococcus aureus [26]) of the same compound?
A: Its Activity is 1.6 log10CFU/ml.

Q: And the MIC (Staphylococcus aureus [27])?
A: The MIC was 0.9 µM.

Q: And the MIC (Staphylococcus aureus [28])?
A: Its MIC is 0.9 µM.

Q: What about the Activity [29] of the same compound?
A: Its Activity is “Non-Toxic”.

Q: And the Activity [30]?
A: Its Activity is “Non-Toxic”.

Q: And the Activity [31]?
A: Its Activity is 62.25 U/L.

Q: And the Activity [32]?
A: The Activity was 0.38 mg/dL.
